What was measured:
[1] = tested on: rapamycin-induced FKBP–FRB interaction within HEK293 cells; assay: NanoBiT luciferase structural complementation assay of rapamycin-induced FKBP–FRB interaction; type: cell-based, human; conditions: HEK293 co-transfected with FRB-LgBit and FKBP-SmBiT, 200 nM rapamycin, RLU for 60 min, qualitative; for peptide concentration inhibiting rapamycin-induced FKBP–FRB interaction: peptide added with rapamycin plus booster after 30 min, at least five determinations in triplicates
Protocol: The protein complementation assay technology used herein, NanoBiT® (Promega, Madison, WI, USA), was commercially designed to investigate inducible PPI under in vivo cellular conditions, allowing the analyses of distinctive molecules that, introduced within cells, can modify inducible PPI [58]. All experimental procedures were performed according to the manufacturer’s recommendations. Briefly, transient transfections were performed with NanoBiT® PPI Control Pair FKBP–FRB (Promega, Madison, WI, USA; catalog number N2016), containing the FRB-LgBit and FKBP-SmBiT vectors (NanoBiT® PPI Control Pair FKBP, FRB; catalog number N2016, Promega, Madison, WI, USA). Plasmids were co-transfected into HEK293 cells using FuGENE® 6 Transfection Reagent (Promega, Madison, WI, USA), according to the recommendations of the manufacturers. Cells transfected in the absence of DNA were the negative controls of the experiments, whereas the green fluorescent protein expressing pEGFP plasmid (Clontech, Mountain View, CA, USA; 100 ng) was used to evaluate transfections efficiencies; after 30 h of transfection, the pEGFP expression was easily assessed by fluorescent microscopy (data not shown).
HEK293 cells (approximately 10^4) cultured in a 96-well plate in DMEM high-glucose medium, supplemented with 10% FBS and 1% penicillin/streptomycin, were transiently co-transfected with 200 ng of both […] and FKBP-SmBiT vectors (NanoBiT® PPI Control Pair FKBP, FRB; catalog number N2016, Promega, Madison, WI, USA); this final plasmid concentration of 200 ng was defined previously testing different plasmid concentrations, as shown in Supplemental Figure S1A. The transfected cells were incubated in Opti-MEM® I Reduced Serum Medium culture medium (Gibco, Gaithersburg, MD, USA) for 2 h and then treated with 200 nM of rapamycin (BPSBioscience, CAS 53123-88-9, San Diego, CA, USA) diluted in Opti-MEM®/0.01% DMSO (Gibco, Gaithersburg, MD, USA; this rapamycin concentration of 200 nM was defined previously testing different concentrations, as shown in Supplemental Figure S1B). […] Graphs of RLU versus time were plotted by GraphPad Prism (GraphPad, San Diego, CA, USA). Control experiments were conducted using VFD10 and VFD7 without cpp covalently bound, in addition to cpp alone (Supplemental Figure S2).

[2] = after 30 min of internalization into Chinese hamster ovarian cells; random control peptide; cited from earlier work
Protocol: Hundreds of InPeps have been described from the most diverse sources, including plants, yeast, fish, and mammals. Despite of the strong evidence that InPeps are natural constituents of the cells, the expected short half-life of peptides within cells full of peptidases contests their stability and biological significance. […] For example, after 30 min of internalization into Chinese hamster ovarian cells, the ...

[3] = tested on: Atg5^+/+ mouse embryonic fibroblasts cells (MEF); assay: Cell viability (MTT) after hypoxia-reoxygenation, Atg5+/+ MEF; type: cell-based; conditions: 1 µM peptide from 30 min before ischemia with boosters, 3 h hypoxia, 3 h reoxygenation; n = 3 independent experiments; vs. cpp
Protocol: (§1) These experiments were performed to evaluate the possible pharmacological application of VFD7-cpp and additional selected peptides on cell viability, following an ischemic challenge. These experiments also contributed to investigate the possible biological significance of InPeps for cell viability following hypoxia-reoxygenation. Therefore, herein the effect of peptides was evaluated in wild type mouse embryonic fibroblasts cells (MEF) expressing Atg5 (Atg5^+/+) and in the MEF missing autophagy pathway due to the lack of Atg5 (Atg5^−/−); Atg5 is indispensable in both canonical and non-canonical autophagy. Atg5^+/+ and Atg5^−/− MEF were cultured in a 96-well plate in DMEM high-glucose medium supplemented with 10% FBS and 1% penicillin/streptomycin, as previously described. […] After the protocol, cell viability was measured by using tetrazolium salt 3-(4,5-Dimethylthiazol 2-yl)-2,5-diphenyltetrazolium bromide (MTT) assay; these assays measure the mitochondrial metabolic rate and indirectly reflect the viable cell numbers, which are the most commonly used method to evaluate the effect of compounds on cell viability on cultured cells. […]

[4] = tested on: autophagy-deficient Atg5^−/− MEF cells; assay: Cell viability (MTT) after hypoxia-reoxygenation, Atg5-/- MEF; type: cell-based, mouse; conditions: 1 µM peptide from 30 min before ischemia with boosters, 3 h hypoxia, 3 h reoxygenation; n = 3 independent experiments
Protocol: as §1

[5] = tested on: PPI between cytosolic brain proteins and calmodulin (CaM); conditions: surface plasmon resonance; cited from earlier work
Protocol: (§2) VFD10 and VFD7 (10–50 µM) were shown by surface plasmon resonance to inhibit PPI between cytosolic brain proteins and both calmodulin (CaM) and 14-3-3 epsilon. VFD7 (5–20 µM) introduced into the HEK293 cells by means of transient membra ...

HEK293 cells = conditions: introduced into HEK293 cells by transient membrane permeabilization with CHAPS; cited from earlier work
Protocol: as §2

[6] = tested on: PPI between cytosolic brain proteins and 14-3-3 epsilon; conditions: surface plasmon resonance; cited from earlier work
Protocol: as §2

[7] = tested on: thimet oligopeptidase and CaM; conditions: in vitro surface plasmon resonance; cited from earlier work

Substance: AVELLYGRKKKRRQRRR [AVE5-cpp, derived from VFD5-cpp, D to A]
- effect on rapamycin-induced FKBP–FRB interaction (in words) [1]: unable to alter rapamycin-induced FKBP–FRB interactions

Substance: VELLYGRKKRRQRRR [VFD4-cpp, N-terminally shortened VFD7-cpp derivative]
- effect on rapamycin-induced FKBP–FRB interaction (in words) [1]: reduced potencies compared to VFD6-cpp or VFD7-cpp
- peptide concentration inhibiting rapamycin-induced FKBP–FRB interaction [1]: 500 nM

Substance: EVELLYGRKKKRRQRRR [EVE5-cpp, derived from VFD5-cpp, D to E]
- effect on rapamycin-induced FKBP–FRB interaction (in words) [1]: unable to alter rapamycin-induced FKBP–FRB interactions

Substance: VNMVPVGWASFR [random peptide used as the control in an earlier study]
- peptide recovered after internalization [2]: 100%

Substance: VFDVELLKLEYGRKKKRRQRRR [VFD10-cpp, VFD10 covalently coupled to cpp at C-terminus]
- effect on rapamycin-induced FKBP–FRB interaction (in words) [1]: unable to alter rapamycin-induced FKBP–FRB interactions

Substance: DVELLYGRKKRRQRRR [VFD5-cpp, N-terminally shortened VFD7-cpp derivative]
- effect on rapamycin-induced FKBP–FRB interaction (in words) [1]: reduced potencies compared to VFD6-cpp or VFD7-cpp
- peptide concentration inhibiting rapamycin-induced FKBP–FRB interaction [1]: 500 nM

Substance: VFAVELLYGRKKKRRQRRR [VFA7-cpp, VFD7-cpp with D substituted to A]
- effect on rapamycin-induced FKBP–FRB interaction (in words) [1]: unable to alter rapamycin-induced FKBP–FRB interactions

Substance: FDVELLYGRKKKRRQRRR [VFD6-cpp, FDVELL (VFD6) covalently coupled to cpp]
- cell viability after hypoxia-reoxygenation (MTT) [3]: increase cell viability
- peptide concentration inhibiting rapamycin-induced FKBP–FRB interaction [1]: 1 to 500 nM
- cell viability after hypoxia-reoxygenation (MTT) [4]: but not on autophagy-deficient Atg5^−/− MEF cells

Substance: YGRKKKRRQRRR [cpp, cell-penetrating peptide used alone as control, reference compound]
- effect on rapamycin-induced FKBP–FRB interaction (in words) [1]: have no effect

Substance: VFDVELL [VFD7, InPep VFDVELL derived from FKBP12]
- peptide concentration shown to inhibit PPI with calmodulin [5]: 10 to 50 µM
- peptide concentration shown to increase cytosolic Ca2+ concentrations (HEK293 cells): 5 to 20 µM
- peptide concentration shown to inhibit PPI with 14-3-3 epsilon [6]: 10 to 50 µM
- effect on thimet oligopeptidase–CaM interaction (in words) [7]: inhibits the interaction but does not disrupt the association
- effect on rapamycin-induced FKBP–FRB interaction (in words) [1]: have no effect

Substance: VFEVELLYGRKKKRRQRRR [VFE7-cpp, VFD7-cpp with D substituted to E]
- effect on rapamycin-induced FKBP–FRB interaction (in words) [1]: unable to alter rapamycin-induced FKBP–FRB interactions

Substance: VFDVELLKLE [VFD10, InPep … derived from FKBP12]
- peptide concentration shown to inhibit PPI with calmodulin [5]: 10 to 50 µM
- peptide concentration shown to inhibit PPI with 14-3-3 epsilon [6]: 10 to 50 µM
- effect on rapamycin-induced FKBP–FRB interaction (in words) [1]: have no effect
